From ChEMBL document CHEMBL1201862, “PubChem BioAssay data set” (2004)
Values belong to the molecule of their own block, whether it stands above or below them. The source made the active and inactive calls.

Experiments:
Caspase-3 = biological target: T1, Caspase-3 (Homo sapiens, UniProt P42574); assay: SAR Analysis of small molecule inhibitors of Sentrin-specific proteases (SENPs) using a Caspase-3 Selectivity assay. [Related pubchem assays (depositor defined):AID2540, AID2599, AID434973, AID489001]; assay type: functional
T1 sequence (P42574 whole entry): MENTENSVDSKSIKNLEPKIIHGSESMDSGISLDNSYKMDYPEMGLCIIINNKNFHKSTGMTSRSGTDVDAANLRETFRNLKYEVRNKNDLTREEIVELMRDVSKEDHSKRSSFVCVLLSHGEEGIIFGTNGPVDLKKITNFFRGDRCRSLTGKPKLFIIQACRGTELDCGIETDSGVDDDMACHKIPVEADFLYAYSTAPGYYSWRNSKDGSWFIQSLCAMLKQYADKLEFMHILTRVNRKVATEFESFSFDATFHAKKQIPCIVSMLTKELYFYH

[1] = biological target: T2, Dual specificity protein phosphatase 6 (Rattus norvegicus, UniProt Q64346); assay type: functional;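 also: confirmatory in vitro dose-response testing of MKP-3 inhibition; recombinant His-tagged MKP-3 made in E. coli BL21 with OMFP substrate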
T2 sequence (Q64346 whole entry): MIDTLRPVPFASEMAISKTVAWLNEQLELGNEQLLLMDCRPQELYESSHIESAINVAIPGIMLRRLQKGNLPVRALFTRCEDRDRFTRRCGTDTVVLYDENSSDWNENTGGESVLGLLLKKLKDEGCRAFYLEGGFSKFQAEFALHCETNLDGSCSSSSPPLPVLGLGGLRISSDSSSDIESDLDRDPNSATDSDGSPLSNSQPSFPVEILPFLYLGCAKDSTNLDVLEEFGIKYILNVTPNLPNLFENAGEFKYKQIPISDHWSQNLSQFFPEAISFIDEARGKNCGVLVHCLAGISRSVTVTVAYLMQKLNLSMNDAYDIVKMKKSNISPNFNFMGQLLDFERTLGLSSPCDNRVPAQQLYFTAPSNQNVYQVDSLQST

[2] = biological target: T3, Zinc finger protein mex-5 (Caenorhabditis elegans, UniProt Q9XUB2); assay: potency of MEX-5 RNA-binding blockers – biochemical, C. elegans, fluorescence polarization, dose response (AID 1960)
T3 sequence (Q9XUB2 whole entry): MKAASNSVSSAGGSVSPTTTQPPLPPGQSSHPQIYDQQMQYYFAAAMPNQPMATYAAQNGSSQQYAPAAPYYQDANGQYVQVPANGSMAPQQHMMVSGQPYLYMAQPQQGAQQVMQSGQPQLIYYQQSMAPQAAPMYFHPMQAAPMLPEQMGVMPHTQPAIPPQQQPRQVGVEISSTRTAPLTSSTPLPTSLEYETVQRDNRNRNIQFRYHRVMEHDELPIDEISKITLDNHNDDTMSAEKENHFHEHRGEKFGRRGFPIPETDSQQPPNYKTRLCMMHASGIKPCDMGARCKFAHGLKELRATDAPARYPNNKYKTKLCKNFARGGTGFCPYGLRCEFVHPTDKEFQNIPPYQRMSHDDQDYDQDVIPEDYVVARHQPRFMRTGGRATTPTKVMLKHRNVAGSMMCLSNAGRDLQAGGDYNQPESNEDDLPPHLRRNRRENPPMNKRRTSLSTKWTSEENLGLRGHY

[3] = biological target: Serine/threonine-protein kinase 17A (Homo sapiens, UniProt Q9UEE5); assay type: functional
[4] = biological target: Tyrosine-protein kinase JAK2 (Homo sapiens, UniProt O60674); assay type: functional;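 also: JAK2 tested as one member of a kinase panel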
[5] = biological target: Tyrosine-protein kinase Fer (Homo sapiens, UniProt P16591); assay type: functional;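 also: FER tested as one member of a kinome panel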
[6] = biological target: Serine/threonine-protein kinase PAK 1 (Homo sapiens, UniProt Q13153); assay type: functional
[7] = biological target: Ribosomal protein S6 kinase alpha-5 (Homo sapiens, UniProt O75582); assay type: functional
SRSF protein kinase 1 = SRSF protein kinase 1 (Homo sapiens, UniProt Q96SB4); assay type: functional;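 also: measured as one member of a kinome-wide kinase profiling panel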
[8] = biological target: Casein kinase I isoform gamma-1 (Homo sapiens, UniProt Q9HCP0); assay type: functional;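 also: measured as the CSNK1G1 member of a kinome profiling panel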
[9] = biological target: Tyrosine-protein kinase Fyn (Homo sapiens, UniProt P06241); assay type: functional
[10] = biological target: Ribosomal protein S6 kinase alpha-3 (Homo sapiens, UniProt P51812); assay type: functional;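 also: measured within a kinome-wide profiling panel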
[11] = biological target: 3-phosphoinositide-dependent protein kinase 1 (Homo sapiens, UniProt O15530); assay type: functional;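 also: value comes from the Navigating the Kinome panel, PDPK1 member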
[12] = biological target: Vascular endothelial growth factor receptor 1 (Homo sapiens, UniProt P17948); assay type: functional;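 also: measured within a kinome-wide profiling panel, FLT1 as the panel member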
Protein skinhead-1 = biological target: T4, Protein skinhead-1 (Caenorhabditis elegans, UniProt P34707); assay type: functional
T4 sequence (P34707 whole entry): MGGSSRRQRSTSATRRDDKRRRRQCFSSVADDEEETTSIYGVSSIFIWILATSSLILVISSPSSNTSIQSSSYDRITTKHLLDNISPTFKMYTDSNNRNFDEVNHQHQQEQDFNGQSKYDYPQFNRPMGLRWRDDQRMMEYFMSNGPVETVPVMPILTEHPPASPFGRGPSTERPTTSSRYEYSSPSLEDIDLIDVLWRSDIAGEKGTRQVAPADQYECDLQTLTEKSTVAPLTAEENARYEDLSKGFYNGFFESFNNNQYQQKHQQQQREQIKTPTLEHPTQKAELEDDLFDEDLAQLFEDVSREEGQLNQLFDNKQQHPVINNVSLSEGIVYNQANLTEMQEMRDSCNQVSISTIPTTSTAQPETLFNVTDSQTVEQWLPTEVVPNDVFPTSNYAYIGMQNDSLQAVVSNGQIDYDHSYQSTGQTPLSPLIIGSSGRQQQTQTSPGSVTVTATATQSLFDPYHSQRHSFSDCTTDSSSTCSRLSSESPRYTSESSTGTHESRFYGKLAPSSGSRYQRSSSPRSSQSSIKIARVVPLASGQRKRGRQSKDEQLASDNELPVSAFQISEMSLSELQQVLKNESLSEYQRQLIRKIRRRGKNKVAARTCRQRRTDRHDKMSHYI

SRSF protein kinase 1, sequence (Q96SB4 whole entry, canonical isoform): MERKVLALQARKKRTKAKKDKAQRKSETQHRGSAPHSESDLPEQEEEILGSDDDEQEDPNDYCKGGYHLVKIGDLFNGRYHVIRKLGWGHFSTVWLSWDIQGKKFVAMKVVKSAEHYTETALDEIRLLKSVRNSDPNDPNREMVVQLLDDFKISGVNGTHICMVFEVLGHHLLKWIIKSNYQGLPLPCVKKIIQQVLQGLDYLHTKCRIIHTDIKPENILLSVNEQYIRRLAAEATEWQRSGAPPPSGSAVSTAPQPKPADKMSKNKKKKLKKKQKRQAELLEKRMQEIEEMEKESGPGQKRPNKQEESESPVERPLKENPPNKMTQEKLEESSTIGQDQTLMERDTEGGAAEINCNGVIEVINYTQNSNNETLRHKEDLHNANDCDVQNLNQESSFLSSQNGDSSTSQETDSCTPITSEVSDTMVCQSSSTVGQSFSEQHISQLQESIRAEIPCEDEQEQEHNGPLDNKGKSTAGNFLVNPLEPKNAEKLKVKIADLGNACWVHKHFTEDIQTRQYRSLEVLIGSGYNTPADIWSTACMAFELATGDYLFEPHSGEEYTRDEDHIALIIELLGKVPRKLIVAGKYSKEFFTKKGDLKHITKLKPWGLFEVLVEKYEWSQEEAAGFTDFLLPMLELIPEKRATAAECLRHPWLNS
Tyrosine-protein kinase Fyn, sequence (P06241 whole entry): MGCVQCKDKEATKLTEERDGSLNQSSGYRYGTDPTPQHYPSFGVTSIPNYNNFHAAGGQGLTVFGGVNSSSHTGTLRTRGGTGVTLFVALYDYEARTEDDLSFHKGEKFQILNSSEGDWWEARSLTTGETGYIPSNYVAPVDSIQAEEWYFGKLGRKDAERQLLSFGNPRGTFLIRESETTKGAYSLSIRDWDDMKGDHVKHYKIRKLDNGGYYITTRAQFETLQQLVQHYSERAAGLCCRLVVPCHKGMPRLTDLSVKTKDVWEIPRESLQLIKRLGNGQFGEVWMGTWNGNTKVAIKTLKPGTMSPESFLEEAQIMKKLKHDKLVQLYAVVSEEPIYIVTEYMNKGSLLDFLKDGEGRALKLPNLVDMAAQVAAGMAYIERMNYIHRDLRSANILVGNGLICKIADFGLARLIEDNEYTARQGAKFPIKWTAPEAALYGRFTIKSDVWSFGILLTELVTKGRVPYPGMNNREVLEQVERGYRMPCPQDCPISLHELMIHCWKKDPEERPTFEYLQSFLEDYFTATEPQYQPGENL
Serine/threonine-protein kinase 17A, sequence (Q9UEE5 whole entry): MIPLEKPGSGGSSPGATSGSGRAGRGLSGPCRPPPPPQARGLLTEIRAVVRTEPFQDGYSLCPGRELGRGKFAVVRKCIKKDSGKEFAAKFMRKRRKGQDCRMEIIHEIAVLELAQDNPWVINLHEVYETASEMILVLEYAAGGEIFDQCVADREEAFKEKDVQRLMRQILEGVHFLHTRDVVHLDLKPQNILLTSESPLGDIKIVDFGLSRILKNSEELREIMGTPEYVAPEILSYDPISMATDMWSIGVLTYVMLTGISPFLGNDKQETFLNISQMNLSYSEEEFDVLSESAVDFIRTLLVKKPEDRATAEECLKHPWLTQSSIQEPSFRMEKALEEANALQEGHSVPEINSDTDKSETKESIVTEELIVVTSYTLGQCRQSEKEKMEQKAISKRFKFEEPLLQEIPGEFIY
Ribosomal protein S6 kinase alpha-5, sequence (O75582 whole entry): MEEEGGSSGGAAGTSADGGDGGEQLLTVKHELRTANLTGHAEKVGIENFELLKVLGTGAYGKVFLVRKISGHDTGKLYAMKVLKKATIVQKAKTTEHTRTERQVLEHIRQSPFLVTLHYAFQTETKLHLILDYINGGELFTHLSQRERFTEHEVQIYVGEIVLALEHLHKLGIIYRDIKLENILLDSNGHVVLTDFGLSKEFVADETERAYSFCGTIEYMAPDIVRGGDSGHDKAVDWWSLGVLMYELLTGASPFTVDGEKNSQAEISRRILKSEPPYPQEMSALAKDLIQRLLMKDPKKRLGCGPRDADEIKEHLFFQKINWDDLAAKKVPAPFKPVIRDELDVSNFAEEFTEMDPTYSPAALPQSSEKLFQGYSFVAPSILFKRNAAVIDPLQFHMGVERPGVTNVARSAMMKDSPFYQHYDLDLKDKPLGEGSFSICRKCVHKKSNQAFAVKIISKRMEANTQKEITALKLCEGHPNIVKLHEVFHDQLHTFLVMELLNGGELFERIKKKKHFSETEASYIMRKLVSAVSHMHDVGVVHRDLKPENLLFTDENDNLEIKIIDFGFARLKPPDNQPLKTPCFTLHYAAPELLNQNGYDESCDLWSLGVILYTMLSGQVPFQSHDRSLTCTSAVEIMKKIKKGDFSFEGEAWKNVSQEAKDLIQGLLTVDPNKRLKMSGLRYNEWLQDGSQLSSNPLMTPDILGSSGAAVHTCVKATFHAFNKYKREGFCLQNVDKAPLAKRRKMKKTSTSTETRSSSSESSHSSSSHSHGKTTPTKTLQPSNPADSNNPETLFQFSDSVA
3-phosphoinositide-dependent protein kinase 1, sequence (O15530 whole entry): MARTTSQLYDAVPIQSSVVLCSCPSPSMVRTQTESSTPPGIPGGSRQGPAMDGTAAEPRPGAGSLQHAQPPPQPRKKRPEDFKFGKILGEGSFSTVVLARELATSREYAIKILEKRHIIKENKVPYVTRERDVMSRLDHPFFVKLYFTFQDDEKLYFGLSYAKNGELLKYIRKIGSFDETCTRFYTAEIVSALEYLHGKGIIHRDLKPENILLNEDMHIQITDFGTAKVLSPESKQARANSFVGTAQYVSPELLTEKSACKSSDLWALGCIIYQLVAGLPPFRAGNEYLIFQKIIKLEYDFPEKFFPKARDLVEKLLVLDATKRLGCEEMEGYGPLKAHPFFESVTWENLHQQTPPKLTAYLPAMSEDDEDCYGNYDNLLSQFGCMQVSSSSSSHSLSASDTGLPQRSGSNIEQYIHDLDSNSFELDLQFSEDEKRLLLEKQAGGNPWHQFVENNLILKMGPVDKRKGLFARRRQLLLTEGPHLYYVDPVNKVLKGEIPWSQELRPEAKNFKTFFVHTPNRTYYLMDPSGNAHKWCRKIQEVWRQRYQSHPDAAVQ
Tyrosine-protein kinase Fer, sequence (P16591 whole entry): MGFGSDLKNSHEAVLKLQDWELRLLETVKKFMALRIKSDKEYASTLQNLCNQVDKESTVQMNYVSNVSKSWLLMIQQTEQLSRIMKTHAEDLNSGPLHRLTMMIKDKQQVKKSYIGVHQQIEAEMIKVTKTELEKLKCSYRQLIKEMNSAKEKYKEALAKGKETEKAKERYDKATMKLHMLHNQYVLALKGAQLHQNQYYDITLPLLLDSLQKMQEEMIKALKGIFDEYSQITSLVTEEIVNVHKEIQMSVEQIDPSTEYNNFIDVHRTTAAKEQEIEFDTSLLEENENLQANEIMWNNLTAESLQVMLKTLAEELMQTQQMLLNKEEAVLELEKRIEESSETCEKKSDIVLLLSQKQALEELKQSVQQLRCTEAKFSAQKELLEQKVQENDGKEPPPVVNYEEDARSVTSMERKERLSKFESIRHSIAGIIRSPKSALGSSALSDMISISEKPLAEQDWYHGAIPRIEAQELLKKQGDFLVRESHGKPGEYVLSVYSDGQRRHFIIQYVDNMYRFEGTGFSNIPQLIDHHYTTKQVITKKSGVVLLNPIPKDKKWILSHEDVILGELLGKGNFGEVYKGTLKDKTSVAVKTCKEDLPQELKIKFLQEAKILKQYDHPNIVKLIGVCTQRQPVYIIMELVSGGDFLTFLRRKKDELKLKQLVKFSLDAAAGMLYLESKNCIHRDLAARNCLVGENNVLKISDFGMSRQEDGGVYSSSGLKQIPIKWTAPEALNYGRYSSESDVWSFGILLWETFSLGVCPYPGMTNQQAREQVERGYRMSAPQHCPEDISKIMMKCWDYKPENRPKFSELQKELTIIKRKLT
Ribosomal protein S6 kinase alpha-3, sequence (P51812 whole entry): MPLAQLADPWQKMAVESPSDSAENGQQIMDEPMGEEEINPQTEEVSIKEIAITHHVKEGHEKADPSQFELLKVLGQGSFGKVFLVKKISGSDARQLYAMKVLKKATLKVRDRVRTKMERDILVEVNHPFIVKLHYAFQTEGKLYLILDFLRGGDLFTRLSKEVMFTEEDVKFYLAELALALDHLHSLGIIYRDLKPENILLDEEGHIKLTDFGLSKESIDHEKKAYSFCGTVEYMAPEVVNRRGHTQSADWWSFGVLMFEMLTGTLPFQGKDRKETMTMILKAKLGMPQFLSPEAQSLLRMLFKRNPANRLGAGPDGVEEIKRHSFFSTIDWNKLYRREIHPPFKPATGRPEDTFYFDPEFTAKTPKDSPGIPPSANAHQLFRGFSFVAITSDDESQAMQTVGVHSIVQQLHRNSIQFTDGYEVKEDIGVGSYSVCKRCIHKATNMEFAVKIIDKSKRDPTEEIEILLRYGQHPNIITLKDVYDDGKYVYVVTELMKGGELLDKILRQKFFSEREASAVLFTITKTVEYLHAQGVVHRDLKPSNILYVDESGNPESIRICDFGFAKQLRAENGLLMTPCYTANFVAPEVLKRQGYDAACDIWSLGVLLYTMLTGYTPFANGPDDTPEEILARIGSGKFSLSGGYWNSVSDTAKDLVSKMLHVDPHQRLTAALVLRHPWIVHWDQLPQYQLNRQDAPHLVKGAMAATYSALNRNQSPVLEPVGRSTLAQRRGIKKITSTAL
Casein kinase I isoform gamma-1, sequence (Q9HCP0 whole entry, canonical isoform): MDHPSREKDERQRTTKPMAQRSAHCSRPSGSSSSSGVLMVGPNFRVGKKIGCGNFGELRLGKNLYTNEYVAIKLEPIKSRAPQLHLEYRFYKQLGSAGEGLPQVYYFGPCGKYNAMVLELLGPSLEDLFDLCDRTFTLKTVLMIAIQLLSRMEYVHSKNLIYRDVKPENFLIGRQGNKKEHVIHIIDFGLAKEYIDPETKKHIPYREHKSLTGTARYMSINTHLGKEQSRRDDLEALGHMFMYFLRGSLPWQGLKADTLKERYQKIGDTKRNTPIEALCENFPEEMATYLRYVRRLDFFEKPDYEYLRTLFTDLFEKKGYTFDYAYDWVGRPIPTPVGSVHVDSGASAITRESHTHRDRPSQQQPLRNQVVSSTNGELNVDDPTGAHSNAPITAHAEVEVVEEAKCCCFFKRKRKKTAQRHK

SMILES: O=C(CCc1ccccc1)NNc1cc(N2CCCCC2)nc(N2CCCCC2)n1
IC50 (Caspase-3): > 99000 nM (inactive)

SMILES: O=C(O)C1Nc2c(O)cc(Cl)c([N+](=O)[O-])c2C2C=CCC12 (stereo not given)
IC50 [1]: 35400 nM (active)
EC50 [2]: 19100 nM (inconclusive)

Ki [3]: 501 nM (active)
Ki [4]: 1260 nM (active)
Ki [5]: > 1580 nM (inactive)
Ki [6]: 631 nM (active)
Ki [7]: 5.01 nM (active)
Ki (SRSF protein kinase 1): > 5010 nM (inactive)
Ki [8]: 79.4 nM (active)
Ki [9]: > 794 nM (inactive)
Ki [10]: 15.8 nM (active)
Ki [11]: 2000 nM (active)
Ki [12]: > 398 nM (inactive)
SMILES: Cc1n[nH]c2ccc(-c3cncc(OCC(N)Cc4cccc(Cl)c4)c3)cc12 (stereo not given)

SMILES: Clc1ccc2nc(-c3ccc(Br)s3)cn2c1
IC50 (Protein skinhead-1): 57500 nM (inactive)
